The target of one assay is PI3K (Homo sapiens, UniProt P42336). The experiment in a line: Fluorescence polarization assay for PI3K.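 Further: PI3K kinase reaction on PIP2 with ATP, 30-60 min, product sensed by GST-GRP with red probe in fluorescence polarization (mP), controls without enzyme and at zero time.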 It is filed as biochemical. The following applies: PI3Kα; read-out: PI3Kα IC50.
A further assay deals with prostate line LNCap. As to the kind of experiment: In vitro cell culture growth assay (MTS), LNCap. The note with it: Homo sapiens, LNCaP, 72 h, LNCap cells, three days after drug treatment. The class given is cell-based, human.
For the next assay, the system named is breast line MDA468. As to the kind of experiment: In vitro cell culture growth assay (MTS), MDA468. It is filed as cell-based, human. The note with it: Homo sapiens, 72 h, MDA468 cells, three days after drug treatment. The gist of the method: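 MDA468 or LNCap cells received inhibitors one day after plating and were grown for three days. Viable cell density read by MTS conversion, absorbance 490 nm, expressed as percent of control growth versus vehicle-treated cells on the same plate.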

pIC50: −log10 of the molar value.

Sequence of PI3K (P42336 whole entry): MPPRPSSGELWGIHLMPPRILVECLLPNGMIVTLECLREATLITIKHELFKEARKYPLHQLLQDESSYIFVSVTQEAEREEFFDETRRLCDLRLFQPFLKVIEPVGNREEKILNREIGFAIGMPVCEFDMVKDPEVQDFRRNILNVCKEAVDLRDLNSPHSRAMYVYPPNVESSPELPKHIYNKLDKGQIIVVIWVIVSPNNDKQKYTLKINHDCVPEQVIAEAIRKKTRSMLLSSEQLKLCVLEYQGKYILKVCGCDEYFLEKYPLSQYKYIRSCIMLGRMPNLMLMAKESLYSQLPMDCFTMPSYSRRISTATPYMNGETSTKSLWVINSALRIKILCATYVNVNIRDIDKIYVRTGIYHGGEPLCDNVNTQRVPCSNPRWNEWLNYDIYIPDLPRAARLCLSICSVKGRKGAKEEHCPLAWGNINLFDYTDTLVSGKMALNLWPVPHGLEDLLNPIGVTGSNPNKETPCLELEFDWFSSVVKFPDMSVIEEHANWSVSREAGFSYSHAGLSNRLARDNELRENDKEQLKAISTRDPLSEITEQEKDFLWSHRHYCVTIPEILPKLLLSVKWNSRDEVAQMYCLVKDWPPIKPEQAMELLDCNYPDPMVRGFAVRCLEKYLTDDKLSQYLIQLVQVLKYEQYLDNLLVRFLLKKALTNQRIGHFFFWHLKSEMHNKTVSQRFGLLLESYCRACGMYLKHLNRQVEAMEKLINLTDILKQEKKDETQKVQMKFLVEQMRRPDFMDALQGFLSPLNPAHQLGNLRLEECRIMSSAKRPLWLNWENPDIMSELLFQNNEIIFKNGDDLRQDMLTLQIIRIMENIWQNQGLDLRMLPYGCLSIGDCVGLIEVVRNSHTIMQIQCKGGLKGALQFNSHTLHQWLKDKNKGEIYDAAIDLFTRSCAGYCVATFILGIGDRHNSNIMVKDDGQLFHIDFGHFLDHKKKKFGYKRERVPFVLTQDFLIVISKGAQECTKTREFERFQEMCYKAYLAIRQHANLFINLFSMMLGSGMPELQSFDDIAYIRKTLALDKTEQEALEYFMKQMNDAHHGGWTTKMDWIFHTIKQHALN
Sequence of PI3K (P27986 whole entry partner): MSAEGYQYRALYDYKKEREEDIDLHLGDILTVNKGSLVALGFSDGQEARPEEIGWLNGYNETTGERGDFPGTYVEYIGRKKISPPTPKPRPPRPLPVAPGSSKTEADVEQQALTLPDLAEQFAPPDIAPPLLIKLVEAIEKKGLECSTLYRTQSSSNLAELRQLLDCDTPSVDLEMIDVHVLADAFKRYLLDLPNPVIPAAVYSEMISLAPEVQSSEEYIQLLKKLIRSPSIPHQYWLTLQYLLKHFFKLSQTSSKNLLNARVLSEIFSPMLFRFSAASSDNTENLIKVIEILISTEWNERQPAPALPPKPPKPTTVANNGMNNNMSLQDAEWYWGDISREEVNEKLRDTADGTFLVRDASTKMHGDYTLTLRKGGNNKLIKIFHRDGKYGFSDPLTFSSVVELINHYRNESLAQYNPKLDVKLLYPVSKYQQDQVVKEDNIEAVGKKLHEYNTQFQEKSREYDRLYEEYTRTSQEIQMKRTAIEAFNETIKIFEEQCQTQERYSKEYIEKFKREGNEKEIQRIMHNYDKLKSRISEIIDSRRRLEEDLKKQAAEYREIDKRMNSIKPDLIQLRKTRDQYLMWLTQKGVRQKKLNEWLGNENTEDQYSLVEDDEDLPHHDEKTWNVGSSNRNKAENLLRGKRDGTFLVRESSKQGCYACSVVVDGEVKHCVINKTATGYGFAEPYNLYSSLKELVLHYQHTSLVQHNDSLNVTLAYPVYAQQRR

In the case of `CCONC(=O)Nc1ccc(-c2nc(N3CCOCC3)c3cnn(C4CCN(Cc5ccccc5)CC4)c3n2)cc1` [Compound 533, 1-{4-[1-(1-benzylpiperidin-4-yl)-4-morpholin-4-yl-1H-pyrazolo[3,4-d]pyrimidin-6-yl]phenyl}-3-ethoxyurea], the negative-log IC50 (pIC50) at PI3K was 6.56; with prostate line LNCap it was 6.17; in the assay on breast line MDA468, 6.80.

On to `O=C(NCC(F)(F)F)Nc1ccc(-c2nc(N3CCOCC3)c3cnn(C4CCN(Cc5ccccc5)CC4)c3n2)cc1` [Compound 535, 1-{4-[1-(1-benzylpiperidin-4-yl)-4-morpholin-4-yl-1H-pyrazolo[3,4-d]pyrimidin-6-yl]phenyl}-3-(2,2,2-trifluoroethyl)urea], for which the negative logarithm of the IC50 (pIC50) at PI3K is 6.23; in the assay with prostate line LNCap, 6.49; in the assay on breast line MDA468, 5.89.

For `O=C(Nc1ccc(-c2nc(N3CCOCC3)c3cnn(C4CCN(Cc5ccccc5)CC4)c3n2)cc1)NN1CCCC1` [Compound 537, 1-{4-[1-(1-benzylpiperidin-4-yl)-4-morpholin-4-yl-1H-pyrazolo[3,4-d]pyrimidin-6-yl]phenyl}-3-pyrrolidin-1-ylurea], the figures for the negative logarithm of the IC50 (pIC50) on PI3K, in the assay on prostate line LNCap and with breast line MDA468 were 5.37, 5.52 and 5.00, respectively.

Turning to `NNC(=O)Nc1ccc(-c2nc(N3CCOCC3)c3cnn(-c4ccccc4)c3n2)cc1` [Compound 538, N-[4-(4-morpholin-4-yl-1-phenyl-1H-pyrazolo[3,4-d]pyrimidin-6-yl)phenyl]hydrazinecarboxamide], the negative-log IC50 (pIC50) was 6.77 at PI3K, 5.28 in the assay on prostate line LNCap and 5.10 in the assay on breast line MDA468.

For `O=C(NO)Nc1ccc(-c2nc(N3CCOCC3)c3cnn(-c4ccccc4)c3n2)cc1` [Compound 539, 1-hydroxy-3-[4-(4-morpholin-4-yl-1-phenyl-1H-pyrazolo[3,4-d]pyrimidin-6-yl)phenyl]urea], the negative-log IC50 (pIC50) at PI3K was 6.68; in the assay with prostate line LNCap, 6.32; with breast line MDA468, 5.96.

Turning to `O=C(NCCF)Nc1ccc(-c2nc(N3CCOCC3)c3cnn(-c4ccccc4)c3n2)cc1` [Compound 540, 1-(2-fluoroethyl)-3-[4-(4-morpholin-4-yl-1-phenyl-1H-pyrazolo[3,4-d]pyrimidin-6-yl)phenyl]urea], the pIC50 at PI3K is 6.60; in the assay on prostate line LNCap, 6.72; in the assay with breast line MDA468 it was 6.05.

`CONC(=O)Nc1ccc(-c2nc(N3CCOCC3)c3cnn(-c4ccccc4)c3n2)cc1` [Compound 541, 1-methoxy-3-[4-(4-morpholin-4-yl-1-phenyl-1H-pyrazolo[3,4-d]pyrimidin-6-yl)phenyl]urea]: the negative logarithm of the IC50 (pIC50) is 6.39 on PI3K, 5.74 with prostate line LNCap and 5.30 in the assay on breast line MDA468.

As to `C=CCONC(=O)Nc1ccc(-c2nc(N3CCOCC3)c3cnn(-c4ccccc4)c3n2)cc1` [Compound 542, 1-(allyloxy)-3-[4-(4-morpholin-4-yl-1-phenyl-1H-pyrazolo[3,4-d]pyrimidin-6-yl)phenyl]urea], the pIC50 was 6.05 at PI3K, 5.52 with prostate line LNCap and 4.22 with breast line MDA468.

Turning to `CNCCNC(=O)Nc1ccc(-c2nc(N3CCOCC3)c3cnn(C4CCN(Cc5ccccc5)CC4)c3n2)cc1` [Compound 545, 1-{4-[1-(1-benzylpiperidin-4-yl)-4-morpholin-4-yl-1H-pyrazolo[3,4-d]pyrimidin-6-yl]phenyl}-3-[2-(methylamino)ethyl]urea], the pIC50 on PI3K is 7.89; with prostate line LNCap, 6.70; in the assay with breast line MDA468, 6.82.

As to `NC(=O)Nc1ccc(-c2nc(N3CCOCC3)c3cnn(C4CCN(C(=O)c5cccnc5)CC4)c3n2)cc1` [Compound 546, 1-(4-{4-morpholin-4-yl-1-[1-(pyridin-3-ylcarbonyl)piperidin-4-yl]-1H-pyrazolo[3,4-d]pyrimidin-6-yl}phenyl)urea], the figures for the pIC50 at PI3K, in the assay on prostate line LNCap and with breast line MDA468 were 6.75, 5.52 and 5.74, respectively.

Consider `O=C(Nc1ccc(-c2nc(N3CCOCC3)c3cnn(C4CCN(C(=O)c5cccnc5)CC4)c3n2)cc1)Nc1cccnc1` [Compound 547, 1-(4-{4-morpholin-4-yl-1-[1-(pyridin-3-ylcarbonyl)piperidin-4-yl]-1H-pyrazolo[3,4-d]pyrimidin-6-yl}phenyl)-3-pyridin-3-ylurea], for which the negative-log IC50 (pIC50) is 7.49 at PI3K, 6.70 in the assay with prostate line LNCap and 7.57 in the assay on breast line MDA468.

Regarding `O=C(NCCF)Nc1ccc(-c2nc(N3CCOCC3)c3cnn(C4CCN(C(=O)c5cccnc5)CC4)c3n2)cc1` [Compound 548, 1-(2-fluoroethyl)-3-(4-{4-morpholin-4-yl-1-[1-(pyridin-3-ylcarbonyl)piperidin-4-yl]-1H-pyrazolo[3,4-d]pyrimidin-6-yl}phenyl)urea], the pIC50 is 6.27 on PI3K, 6.20 in the assay on prostate line LNCap and 6.28 in the assay on breast line MDA468.

For `O=C(NCCO)Nc1ccc(-c2nc(N3CCOCC3)c3cnn(C4CCN(C(=O)c5cccnc5)CC4)c3n2)cc1` [Compound 549, 1-(2-hydroxyethyl)-3-(4-{4-morpholin-4-yl-1-[1-(pyridin-3-ylcarbonyl)piperidin-4-yl]-1H-pyrazolo[3,4-d]pyrimidin-6-yl}phenyl)urea], the pIC50 on PI3K is 6.66; with prostate line LNCap, 5.12; with breast line MDA468 it was 5.05.

With `O=C(NO)Nc1ccc(-c2nc(N3CCOCC3)c3cnn(C4CCN(C(=O)c5cccnc5)CC4)c3n2)cc1` [Compound 550, 1-hydroxy-3-(4-{4-morpholin-4-yl-1-[1-(pyridin-3-ylcarbonyl)piperidin-4-yl]-1H-pyrazolo[3,4-d]pyrimidin-6-yl}phenyl)urea], the pIC50 at PI3K is 6.22; with prostate line LNCap it was 5.00; in the assay with breast line MDA468, 5.14.

As for `NNC(=O)Nc1ccc(-c2nc(N3CCOCC3)c3cnn(C4CCN(C(=O)c5cccnc5)CC4)c3n2)cc1` [Compound 551, N-(4-{4-morpholin-4-yl-1-[1-(pyridin-3-ylcarbonyl)piperidin-4-yl]-1H-pyrazolo[3,4-d]pyrimidin-6-yl}phenyl)hydrazinecarboxamide], the pIC50 was 6.40 on PI3K, 5.00 in the assay on prostate line LNCap and 4.85 in the assay with breast line MDA468.

With `CCNC(=O)Nc1ccc(-c2nc(N3CCOCC3)c3cnn(C4CCN(C(=O)c5cccnc5)CC4)c3n2)cc1` [Compound 552, 1-ethyl-3-(4-{4-morpholin-4-yl-1-[1-(pyridin-3-ylcarbonyl)piperidin-4-yl]-1H-pyrazolo[3,4-d]pyrimidin-6-yl}phenyl)urea], the pIC50 on PI3K is 6.36; in the assay with prostate line LNCap, 7.22; in the assay with breast line MDA468, 6.74.

Take `CONC(=O)Nc1ccc(-c2nc(N3CCOCC3)c3cnn(C4CCN(C(=O)c5cccnc5)CC4)c3n2)cc1` [Compound 553, 1-methoxy-3-(4-{4-morpholin-4-yl-1-[1-(pyridin-3-ylcarbonyl)piperidin-4-yl]-1H-pyrazolo[3,4-d]pyrimidin-6-yl}phenyl)urea]: the figures for the negative-log IC50 (pIC50) on PI3K, with prostate line LNCap and in the assay with breast line MDA468 were 5.74, 6.10 and 5.52, respectively.

On to `NNC(=O)Nc1ccc(-c2nc(N3CCOCC3)c3cnn(C4CCN(Cc5ccccc5)CC4)c3n2)cc1` [Compound 554, N-{4-[1-(1-benzylpiperidin-4-yl)-4-morpholin-4-yl-1H-pyrazolo[3,4-d]pyrimidin-6-yl]phenyl}hydrazinecarboxamide], for which the negative logarithm of the IC50 (pIC50) at PI3K is 6.81; with prostate line LNCap it was 6.05; in the assay with breast line MDA468 it was 5.12.

The record behind these values is patent US20080234262A1 (Wyeth, priority 2007, published 2008).
